These results are taken from US20230066011A1, “PYRROLOPYRIMIDINE DERIVATIVE, AND PHARMACEUTICAL COMPOSITION FOR PREVENTING OR TREATING PROTEIN KINASE-RELATED DISEASE COMPRISING SAME AS ACTIVE INGREDIENT” (VORONOI CO., LTD., priority 2019, published 2023).

Where only a bound is given, the exact number is not on record here.

For this experiment, the target named is DYRK1 (Homo sapiens, UniProt Q13627). The experiment in a line: Kinase HotSpot service (Reaction Biology Corporation), DYRK1. It is filed as biochemical. Conditions: ATP 10 uM, read-out: DYRK1 IC50 (values indicated by *). As to the method:
The inhibitory activities of the compounds were measured at a 3-fold concentration gradient starting from a maximum compound concentration of […], and the values measured using the Kinase HotSpot service (Reaction Biology Corporation) are indicated by an asterisk (*).
All the experimental methods were performed as provided by the Kinase HotSpot Customer Protocol (http://www.reactionbiology.com//Kinase_Assay_Protocol).

In the case of `COc1cc(S(=O)(=O)N2CCC(N3CCOCC3)CC2)ccc1Nc1nc(C2CC2)c2c(C(F)(F)F)c[nH]c2n1` [Example 226], the concentration for half-maximal inhibition (IC50) (usually the concentration that inhibits the measured activity by half) is < 0.1 µM.

Take `COc1cc(S(=O)(=O)N2CCOCC2)ccc1Nc1nc(C2CC2)c2c(C#N)c[nH]c2n1` [Example 223, 4-cyclopropyl-2-((2-methoxy-4-(morpholinosulfonyl)phenyl)amino)-7H-pyrrolo[2,3-d]pyrimidine-5-carbonitrile]: the IC50 was in the range of 0.101 to 0.3 µM. With `CCN1CCP(=O)(c2ccc(Nc3nc(C4CC4)c4c(C#N)c[nH]c4n3)c(OC)c2)CC1` [Example 261], the IC50 is < 0.1 µM. As to `COc1cc(S(=O)(=O)N2CCC(N3C[C@H]4C[C@@H]3CO4)CC2)ccc1Nc1nc(C2CC2)c2c(C(F)(F)F)c[nH]c2n1` [Example 473, N-(4-((4-((1R,4R)-2-oxa-5-azabicyclo[2.2.1]heptan-5-yl)piperidin-1-yl)sulfonyl)-2-methoxyphenyl)-4-cyclopropyl-5-(trifluoromethyl)-7H-pyrrolo[2,3-d]pyrimidin-2-amine], the IC50 is < 0.1 µM. In the case of `COc1cc(S(=O)(=O)N2CCC(N3CCOCC3)CC2)ccc1Nc1nc(C2CC2)c2c(C#N)c[nH]c2n1` [Example 224, 4-cyclopropyl-2-((2-methoxy-4-((4-morpholinopiperidin-1-yl)sulfonyl)phenyl)amino)-7H-pyrrolo[2,3-d]pyrimidine-5-carbonitrile], the IC50 was < 0.1 µM.
